This note sets out measurements from patent US20140135310A1, “SULPHONAMIDE DERIVATIVES OF ALICYCLIC AMINES FOR THE TREATMENT OF CENTRAL NERVOUS SYSTEM DISEASES” (Adamed Sp. z o.o., priority 2011, published 2014).

One may read the inhibition as the change of the read-out against control, counted positive when it falls.

Assay [1] has as its target T1, 5-HT1A receptor (rat hippocampus) (Rattus norvegicus, UniProt P19327).
T1 construct: hippocampus; from tissue; host or cells: rat hippocampus
T1 sequence (P19327 1-422): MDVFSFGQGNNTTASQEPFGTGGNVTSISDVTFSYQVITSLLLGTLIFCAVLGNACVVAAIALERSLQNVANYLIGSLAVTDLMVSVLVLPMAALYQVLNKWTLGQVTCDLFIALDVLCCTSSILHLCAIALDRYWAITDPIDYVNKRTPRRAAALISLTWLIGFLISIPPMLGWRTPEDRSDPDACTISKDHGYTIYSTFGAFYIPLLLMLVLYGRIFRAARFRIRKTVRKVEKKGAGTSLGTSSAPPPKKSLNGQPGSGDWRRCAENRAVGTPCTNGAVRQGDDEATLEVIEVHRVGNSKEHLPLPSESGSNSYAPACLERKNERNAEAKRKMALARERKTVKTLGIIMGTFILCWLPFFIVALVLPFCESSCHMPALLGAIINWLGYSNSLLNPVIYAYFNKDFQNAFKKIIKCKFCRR
Kind of assay: Radioligand binding assay, serotoninergic 5-HT1A receptors.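 Also: test compound at 1 µM.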 The conditions noted are these: binding assay result in %, Table 5a. The text has this:
(§1) The specific ligand binding to the receptors is defined as the difference between the total binding and the non-specific binding determined in the presence of the excess of unlabelled ligand.
(§2) The results are expressed as a percent of control specific binding ((measured specific binding/control specific binding)×100) and as a percent inhibition of control specific binding (100−((measured specific binding/control specific binding)×100)) obtained in the presence of the test compounds. The specific ligand binding to the receptors is defined as the difference between the total binding and the nonspecific binding determined in the presence of an excess of unlabelled ligand. Scintillation counting was the method of detection of ligand binding. The IC50 values (concentration causing a half-maximal inhibition of control specific binding) were determined by non-linear regression analysis of the competition curves generated with mean replicate values using Hill equation curve fitting (Y=D+[(A−D)/(1+(C/C50)nH)], where Y=specific binding, D=minimum specific binding, A=maximum specific binding, C=compound concentration, C50=IC50, and nH=slope factor). This analysis was performed using a software developed at Cerep (Hill software) and validated by comparison with data generated by the commercial software SigmaPlot® 4.0 for Windows® (© 1997 by SPSS Inc.). The inhibition constants (Ki) were calculated using the Cheng Prusoff equation (Ki=IC50/(1+(L/KD)), where L=concentration of radioligand in the assay, and KD=affinity of the radioligand for the receptor). A scatchard plot was used to determine the Kd.
(§3) Experimental conditions for tests are given in Table 4, and results of tests for representative compounds of the invention are given in Table 5a and 5b (receptors 5-HT1A, 5-HT2A, 5-HT6 and 5-HT7) and in Table 6 (receptors 5-HT2C).

The next assay has as its target T2, 5-HT2A receptor (Homo sapiens, UniProt P28223).
T2 construct: purchased PerkinElmer
Kind of assay: Radioligand binding assay, serotoninergic 5-HT2A receptors. The conditions noted are these: binding assay result in %, Table 5a.
From the text: as §1, §2
5-HT2A: Bryan L. Roth. Assay Protocol Book. University of North Carolina At Chapel Hill. National Institute of Mental Health. Psychoactive Drug Screening Program. Available on-line at 31 Aug. 2008: http://pdsp.med.unc.edu/UNC-CH%20Protocol%20Book.pdf

In assay [2] the target is dopaminergic receptors D3 (Homo sapiens, UniProt P35462). Kind of assay: Radioligand binding assay, dopaminergic D3 receptors. The conditions noted are these: test compound 1×10^−6 M.
dopaminergic receptors D3, sequence (P35462 whole entry): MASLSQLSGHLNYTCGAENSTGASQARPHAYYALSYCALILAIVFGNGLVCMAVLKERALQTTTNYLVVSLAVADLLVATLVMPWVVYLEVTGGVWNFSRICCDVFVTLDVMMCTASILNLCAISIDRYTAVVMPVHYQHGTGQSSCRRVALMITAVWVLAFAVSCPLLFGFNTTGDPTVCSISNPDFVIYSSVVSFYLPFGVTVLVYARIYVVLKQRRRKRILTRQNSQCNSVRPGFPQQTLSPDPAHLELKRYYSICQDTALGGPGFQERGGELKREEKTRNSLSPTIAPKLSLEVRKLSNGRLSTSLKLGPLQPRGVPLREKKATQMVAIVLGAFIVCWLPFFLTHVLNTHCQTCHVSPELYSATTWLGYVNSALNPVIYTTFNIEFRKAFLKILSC
From the text: as §1, §2
(§4) Experimental conditions for tests are given in Table 1, the results of tests for representative compounds are given in Tables 2a and 2b (receptors D2 and D3) and in Table 3 (receptors D4).

The next assay concerns the target T3, 5-HT6 receptor (Homo sapiens, UniProt P50406).
T3 construct: purchased PerkinElmer
Kind of assay: Radioligand binding assay, serotoninergic 5-HT6 receptors.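 Also: test compound at 1 µM.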 Particulars: binding assay result in %, Table 5a.
From the text: as §1, §2, §3
5-HT6: Bryan L. Roth. Assay Protocol Book. University of North Carolina At Chapel Hill. National Institute of Mental Health. Psychoactive Drug Screening Program. Available on-line at 31 Aug. 2008: http://pdsp.med.unc.edu/UNC-CH %20Protocol%20Book.pdf

A further assay addresses T4, 5-HT7 receptor (Homo sapiens, UniProt P34969).
T4 construct: purchased PerkinElmer
Kind of assay: Radioligand binding assay, serotoninergic 5-HT7 receptors.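 Also: test compound at 1 µM.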 The conditions noted are these: binding assay result in %, Table 5a.
From the text: as §1, §2, §3
5-HT7: Bryan L. Roth. Assay Protocol Book. University of North Carolina At Chapel Hill. National Institute of Mental Health. Psychoactive Drug Screening Program. Available on-line at 31 Aug. 2008: http://pdsp.med.unc.edu/UNC-CH %20Protocol%20Book.pdf

For assay [3], the target named is dopaminergic receptors D2 (Homo sapiens, UniProt P14416). Kind of assay: Radioligand binding assay, dopaminergic D2 receptors. The conditions noted are these: binding assay, test compound 1×10^−6 M.
dopaminergic receptors D2, sequence (P14416 whole entry): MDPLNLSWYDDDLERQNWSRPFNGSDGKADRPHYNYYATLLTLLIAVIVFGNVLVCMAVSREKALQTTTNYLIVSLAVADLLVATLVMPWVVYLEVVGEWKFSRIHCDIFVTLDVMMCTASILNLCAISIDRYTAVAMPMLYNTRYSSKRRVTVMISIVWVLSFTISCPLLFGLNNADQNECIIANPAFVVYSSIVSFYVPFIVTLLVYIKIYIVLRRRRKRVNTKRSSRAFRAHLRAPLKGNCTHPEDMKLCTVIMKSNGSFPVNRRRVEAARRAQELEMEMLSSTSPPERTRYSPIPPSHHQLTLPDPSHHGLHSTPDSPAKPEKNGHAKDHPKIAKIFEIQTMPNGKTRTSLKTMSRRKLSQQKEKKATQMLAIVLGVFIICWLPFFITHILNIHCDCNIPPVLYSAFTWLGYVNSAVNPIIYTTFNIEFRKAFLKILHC
From the text: as §1, §2, §4

Assay [4] has as its target T5, serotonin transporter (SERT) (Homo sapiens, UniProt P31645).
T5 construct: expressed in transfected cells; host or cells: CHO cells
Kind of assay: Radioligand binding assay, serotonin transporter (SERT). The conditions noted are these: binding assay, test compound 1×10^−6 M.
From the text: as §1, §2
Experimental conditions for tests are given in Table 12, and results of tests for representative compounds are given in Tables 13a and 13b.

T2 sequence (P28223 whole entry): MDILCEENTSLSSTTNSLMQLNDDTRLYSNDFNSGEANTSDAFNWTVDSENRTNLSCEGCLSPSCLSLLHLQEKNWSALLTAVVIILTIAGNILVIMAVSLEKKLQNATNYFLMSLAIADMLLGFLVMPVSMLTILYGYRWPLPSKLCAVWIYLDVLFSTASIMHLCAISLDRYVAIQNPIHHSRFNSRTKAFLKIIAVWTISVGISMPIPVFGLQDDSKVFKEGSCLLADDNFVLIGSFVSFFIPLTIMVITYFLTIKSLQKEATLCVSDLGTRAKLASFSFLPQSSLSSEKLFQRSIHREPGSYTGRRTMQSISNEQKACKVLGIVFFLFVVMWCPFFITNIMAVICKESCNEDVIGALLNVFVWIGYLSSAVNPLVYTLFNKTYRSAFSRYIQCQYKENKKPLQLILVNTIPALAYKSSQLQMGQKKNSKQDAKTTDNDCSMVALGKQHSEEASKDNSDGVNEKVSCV
T3 sequence (P50406 whole entry): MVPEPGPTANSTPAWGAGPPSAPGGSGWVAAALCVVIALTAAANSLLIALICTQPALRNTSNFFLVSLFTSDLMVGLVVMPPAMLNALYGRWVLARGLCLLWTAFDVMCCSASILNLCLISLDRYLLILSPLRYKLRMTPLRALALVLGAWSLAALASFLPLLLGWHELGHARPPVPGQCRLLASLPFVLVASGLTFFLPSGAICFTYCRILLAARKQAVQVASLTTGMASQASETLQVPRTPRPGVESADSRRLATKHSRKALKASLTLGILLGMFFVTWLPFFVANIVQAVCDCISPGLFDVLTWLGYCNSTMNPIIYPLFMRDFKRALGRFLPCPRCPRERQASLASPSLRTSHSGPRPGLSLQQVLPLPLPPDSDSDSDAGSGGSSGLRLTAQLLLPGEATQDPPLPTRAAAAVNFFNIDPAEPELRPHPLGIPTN
T4 sequence (P34969 whole entry): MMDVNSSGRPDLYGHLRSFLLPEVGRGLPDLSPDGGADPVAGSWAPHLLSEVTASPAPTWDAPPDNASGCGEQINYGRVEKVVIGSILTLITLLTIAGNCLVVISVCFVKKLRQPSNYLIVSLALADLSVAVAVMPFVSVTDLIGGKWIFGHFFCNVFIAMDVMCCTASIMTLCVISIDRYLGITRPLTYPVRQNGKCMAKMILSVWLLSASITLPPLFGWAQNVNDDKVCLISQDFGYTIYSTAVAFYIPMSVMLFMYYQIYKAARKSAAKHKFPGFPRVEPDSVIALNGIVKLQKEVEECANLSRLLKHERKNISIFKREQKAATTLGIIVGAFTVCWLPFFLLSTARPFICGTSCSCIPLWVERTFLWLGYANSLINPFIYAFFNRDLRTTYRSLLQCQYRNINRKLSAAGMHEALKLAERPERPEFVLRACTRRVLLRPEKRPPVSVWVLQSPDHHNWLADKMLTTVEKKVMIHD
T5 sequence (P31645 whole entry): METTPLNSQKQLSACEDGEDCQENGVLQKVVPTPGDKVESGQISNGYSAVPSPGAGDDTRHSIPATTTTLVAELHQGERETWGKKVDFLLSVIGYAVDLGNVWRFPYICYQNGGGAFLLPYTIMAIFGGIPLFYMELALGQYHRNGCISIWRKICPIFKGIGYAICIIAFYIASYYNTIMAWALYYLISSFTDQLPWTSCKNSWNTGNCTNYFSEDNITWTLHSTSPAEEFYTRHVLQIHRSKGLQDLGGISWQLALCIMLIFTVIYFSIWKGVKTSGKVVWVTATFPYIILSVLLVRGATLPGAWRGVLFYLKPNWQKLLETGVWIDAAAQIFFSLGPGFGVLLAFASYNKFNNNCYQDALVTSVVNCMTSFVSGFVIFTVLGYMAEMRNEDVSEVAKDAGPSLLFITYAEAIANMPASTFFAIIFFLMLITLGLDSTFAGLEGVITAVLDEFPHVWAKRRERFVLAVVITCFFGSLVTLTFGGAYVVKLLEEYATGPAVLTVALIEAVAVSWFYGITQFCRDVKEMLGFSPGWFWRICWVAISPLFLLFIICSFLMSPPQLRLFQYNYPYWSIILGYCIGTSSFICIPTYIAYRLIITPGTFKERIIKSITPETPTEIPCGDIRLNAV

Consider `O=S(=O)(NCC1CCN(CCCc2noc3cc(F)ccc23)C1)c1cccc(Cl)c1` (stereo not drawn) [Compound 243, 3-Chloro-N-[[1-[3-(6-fluoro-1,2-benzoxazol-3-yl)propyl]pyrrolidin-3-yl]methyl]benzenesulphonamide], for which the inhibition at 1 µM in assay [1] worked out at 21%; at 5-HT2A receptor, 90%; in assay [2] it was 47%; at 5-HT6 receptor, 75%; at 5-HT7 receptor it was 89%; in assay [3] it was 14%. The inhibition at 1 µM in assay [4] turned out to be 7%.
For the molecule `O=S(=O)(NC1CCN(CCCc2noc3cc(F)ccc23)CC1)c1cc2ccccc2s1` [Compound 324, N-[1-[3-(6-Fluoro-1,2-benzoxazol-3-yl)propyl]-4-piperidyl]benzothiophene-2-sulphonamide], the inhibition at 1 µM in assay [1] worked out at 49%; at 5-HT2A receptor, 99%; in assay [2], 41%; on 5-HT6 receptor, 78%; at 5-HT7 receptor, 101%; in assay [3], 77%. For the same molecule, the inhibition at 1 µM in assay [4] was 18%.
For the molecule `O=S(=O)(NC1CCN(CCCc2noc3cc(F)ccc23)CC1)c1csc2ccccc12` [Compound 330, N-[1-[3-(6-Fluoro-1,2-benzoxazol-3-yl)propyl]-4-piperidyl]benzothiophene-3-sulphonamide], the inhibition at 1 µM in assay [1] was 82%; at 5-HT2A receptor, 102%; in assay [2], 64%; on 5-HT6 receptor it was 79%; on 5-HT7 receptor, 101%; in assay [3], 77%. In addition, in assay [4], the inhibition at 1 µM stood at 22%.
Consider `O=S(=O)(NCC1CCN(CCCc2noc3cc(F)ccc23)C1)c1ccc2c(c1)OCO2` (stereo not drawn) [Compound 235, N-[[1-[3-(6-Fluoro-1,2-benzoxazol-3-yl)propyl]pyrrolidin-3-yl]methyl]-1,3-benzodioxole-5-sulphonamide], for which the inhibition at 1 µM in assay [1] was 14%; on 5-HT2A receptor, 91%; in assay [2], 41%; at 5-HT6 receptor, 62%; on 5-HT7 receptor it was 81%; in assay [3], 31%. In addition, the inhibition at 1 µM in assay [4] was 11%.
On to `O=S(=O)(NCC1CN(CCCc2noc3cc(F)ccc23)C1)c1cccc(Cl)c1` [Compound 137, 3-Chloro-N-[[1-[3-(6-fluoro-1,2-benzoxazol-3-yl)propyl]azetidin-3-yl]methyl]benzenesulphonamide], for which the inhibition at 1 µM was 14% in assay [1]; 62% at 5-HT2A receptor; 50% in assay [2]; 14% on 5-HT6 receptor; 82% at 5-HT7 receptor; 76% in assay [3]. In addition, the inhibition at 1 µM in assay [4] is -5%.
`O=S(=O)(NCC1CN(CCCc2noc3cc(F)ccc23)C1)c1ccc(Cl)cc1` [Compound 136, 4-Chloro-N-[[1-[3-(6-fluoro-1,2-benzoxazol-3-yl)propyl]azetidin-3-yl]methyl]benzenesulphonamide]: the inhibition at 1 µM in assay [1] was 35%; on 5-HT2A receptor it was 82%; in assay [2] it was 57%; on 5-HT6 receptor, 72%; at 5-HT7 receptor, 80%; in assay [3] it was 62%. For the same molecule, in assay [4], the inhibition at 1 µM amounted to 9%.
For `Cc1cc(S(=O)(=O)NCC2CCN(CCCc3noc4cc(F)ccc34)C2)c(C)s1` (stereo not drawn) [Compound 262, N-[[1-[3-(6-Fluoro-1,2-benzoxazol-3-yl)propyl]pyrrolidin-3-yl]methyl]-2,5-dimethyl-thiophene-3-sulphonamide], the inhibition at 1 µM in assay [1] was 25%; at 5-HT2A receptor, 85%; in assay [2], 44%; on 5-HT6 receptor it was 69%; at 5-HT7 receptor, 92%; in assay [3], 26%. The inhibition at 1 µM in assay [4] stood at 26%.
With `O=S(=O)(NCC1CCN(CCCc2noc3cc(F)ccc23)C1)c1cc2ccccc2o1` (stereo not drawn) [Compound 257, N-[[1-[3-(6-Fluoro-1,2-benzoxazol-3-yl)propyl]pyrrolidin-3-yl]methyl]-benzofuran-2-sulphonamide], the inhibition at 1 µM in assay [1] came out at 87%; on 5-HT2A receptor it was 100%; in assay [2] it was 62%; on 5-HT6 receptor it was 94%; on 5-HT7 receptor, 88%; in assay [3] it was 92%. Besides, the inhibition at 1 µM in assay [4] was 20%.
As to `CCCc1ccc(S(=O)(=O)NCC2CN(CCCc3noc4cc(F)ccc34)C2)cc1` [Compound 157, N-[[1-[3-(6-Fluoro-1,2-benzoxazol-3-yl)propyl]azetidin-3-yl]methyl]-4-propyl-benzenesulphonamide], the inhibition at 1 µM in assay [1] came to 61%; on 5-HT2A receptor, 95%; in assay [2], 72%; at 5-HT6 receptor, 80%; at 5-HT7 receptor it was 93%; in assay [3] it was 81%. Also, in assay [4], the inhibition at 1 µM is 25%.
As for `O=S(=O)(NCC1CN(CCCc2noc3cc(F)ccc23)C1)c1cc2ccccc2s1` [Compound 153, N-[[1-[3-(6-Fluoro-1,2-benzoxazol-3-yl)propyl]azetidin-3-yl]methyl]-benzothiophene-2-sulphonamide], the inhibition at 1 µM in assay [1] is 55%; on 5-HT2A receptor, 96%; in assay [2], 61%; at 5-HT6 receptor, 80%; at 5-HT7 receptor it was 86%; in assay [3], 82%. Moreover, the “SERT [%]” value in assay [4] was found to be 21%.
On to `CC(C)(C)c1ccc(S(=O)(=O)NCC2CN(CCCc3noc4cc(F)ccc34)C2)cc1` [Compound 141, 4-tert-Butyl-N-[[1-[3-(6-fluoro-1,2-benzoxazol-3-yl)propyl]azetidin-3-yl]methyl]benzenesulphonamide], for which the inhibition at 1 µM was determined as 9% in assay [1]; 85% at 5-HT2A receptor; 58% in assay [2]; 92% on 5-HT6 receptor; 80% at 5-HT7 receptor; 74% in assay [3]. The inhibition at 1 µM in assay [4] is -10%.
Turning to `O=S(=O)(NCC1CCN(CCCc2noc3cc(F)ccc23)C1)c1csc2ccccc12` (stereo not drawn) [Compound 261, N-[[1-[3-(6-Fluoro-1,2-benzoxazol-3-yl)propyl]pyrrolidin-3-yl]methyl]-benzothiophene-3-sulphonamide], the inhibition at 1 µM in assay [1] came to 78%; on 5-HT2A receptor, 101%; in assay [2] it was 65%; at 5-HT6 receptor, 97%; at 5-HT7 receptor, 104%; in assay [3], 88%. Besides, the inhibition at 1 µM in assay [4] came to 3%.
